Several values for one entry are separate records, joined by “and”; a condition that tells them apart may be missing. Equal values may be shown once. Inconclusive results and toxic doses are left out.
Tested on: CD2F1 mice, L1210 leukemia ip, survival T/C
Assay: NCI In Vivo Anticancer Drug Screen. Data for tumor model L1210 Leukemia (intraperitoneal) in CD2F1 (CDF1) mice
Conditions: higher = longer survival
In short: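 In this screen, transplantable tumors were grown in mice given either the compound or its vehicle. Results were expressed as the treated measurement relative to the control measurement.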

[1] = endpoint: mean survival time, dose: 200.0 mg/kg/injection, schedule: Q01DX001 (ip), vehicle: saline with Tween-80
[2] = endpoint: mean survival time, dose: 400.0 mg/kg/injection, schedule: Q01DX001 (ip), vehicle: saline with Tween-80
[3] = endpoint: mean survival time, dose: 100.0 mg/kg/injection, schedule: Q04DX002 (ip), vehicle: saline with Tween-80
[4] = endpoint: mean survival time, dose: 50.0 mg/kg/injection, schedule: Q01DX009 (ip), vehicle: saline with Tween-80
[5] = endpoint: mean survival time, dose: 100.0 mg/kg/injection, schedule: Q01DX009 (ip), vehicle: saline with Tween-80
[6] = endpoint: mean survival time, dose: 100.0 mg/kg/injection, schedule: Q04DX003 (ip), vehicle: saline with Tween-80
[7] = endpoint: mean survival time, dose: 200.0 mg/kg/injection, schedule: Q01DX009 (ip), vehicle: saline with Tween-80
[8] = endpoint: mean survival time, dose: 200.0 mg/kg/injection, schedule: Q04DX003 (ip), vehicle: saline with Tween-80

For `OC(C1CO1)C(O)C1CO1` (stereo not drawn), the T/C (endpoint: mean survival time, dose: 0.13 mg/kg/injection, schedule: Q03HX008 (ip), vehicle: saline) was 101 % of control, the T/C (endpoint: mean survival time, dose: 0.25 mg/kg/injection, schedule: Q03HX008 (ip), vehicle: saline) was 105 % of control and the T/C (endpoint: mean survival time, dose: 0.25 mg/kg/injection, schedule: Q03HX016 (ip), vehicle: saline) was 104 % of control. The T/C (endpoint: mean survival time, dose: 0.25 mg/kg/injection, schedule: Q03HX024 (ip), vehicle: saline) was 104 % of control, the T/C (endpoint: mean survival time, dose: 0.5 mg/kg/injection, schedule: Q01DX009 (ip), vehicle: saline) was 117 % of control and 119 % of control and 121 % of control and the T/C (endpoint: mean survival time, dose: 0.5 mg/kg/injection, schedule: Q01DX009 (sc), vehicle: saline) was 104 % of control. The T/C (endpoint: mean survival time, dose: 0.5 mg/kg/injection, schedule: Q03HX008 (ip), vehicle: saline) was 112 % of control, the T/C (endpoint: mean survival time, dose: 0.5 mg/kg/injection, schedule: Q03HX016 (ip), vehicle: saline) was 115 % of control and the T/C (endpoint: mean survival time, dose: 1.0 mg/kg/injection, schedule: Q01DX001 (ip), vehicle: saline) was 98 % of control and 108 % of control. For the same compound, the T/C (endpoint: mean survival time, dose: 1.0 mg/kg/injection, schedule: Q01DX001 (sc), vehicle: saline) was 106 % of control, the T/C (endpoint: mean survival time, dose: 1.0 mg/kg/injection, schedule: Q01DX009 (sc), vehicle: saline) was 114 % of control and the T/C (endpoint: mean survival time, dose: 1.0 mg/kg/injection, schedule: Q03HX024 (ip), vehicle: saline) was 177 % of control. For the same compound, the T/C (endpoint: mean survival time, dose: 1.0 mg/kg/injection, schedule: Q04DX003 (ip), vehicle: saline) was 107 % of control, the T/C (endpoint: mean survival time, dose: 1.4 mg/kg/injection, schedule: Q04DX003 (ip), vehicle: saline) was 96 % of control and the T/C (endpoint: mean survival time, dose: 2.0 mg/kg/injection, schedule: Q01DX001 (ip), vehicle: saline) was 116 % of control and 111 % of control. For the same compound, the T/C (endpoint: mean survival time, dose: 2.0 mg/kg/injection, schedule: Q01DX001 (sc), vehicle: saline) was 111 % of control, the T/C (endpoint: mean survival time, dose: 2.0 mg/kg/injection, schedule: Q03HX008 (ip), vehicle: saline) was 171 % of control and the T/C (endpoint: mean survival time, dose: 2.0 mg/kg/injection, schedule: Q03HX016 (ip), vehicle: saline) was 201 % of control. For the same compound, the T/C (endpoint: mean survival time, dose: 2.0 mg/kg/injection, schedule: Q03HX024 (ip), vehicle: saline) was 109 % of control, the T/C (endpoint: mean survival time, dose: 2.0 mg/kg/injection, schedule: Q04DX003 (ip), vehicle: saline) was 123 % of control and 104 % of control and 112 % of control and the T/C (endpoint: mean survival time, dose: 2.0 mg/kg/injection, schedule: Q08DX002 (ip), vehicle: saline) was 118 % of control. For the same compound, the T/C (endpoint: mean survival time, dose: 3.0 mg/kg/injection, schedule: Q01DX009 (ip), vehicle: saline) was 192 % of control, the T/C (endpoint: mean survival time, dose: 3.0 mg/kg/injection, schedule: Q04DX003 (ip), vehicle: saline) was 119 % of control and the T/C (endpoint: mean survival time, dose: 4.0 mg/kg/injection, schedule: Q01DX001 (ip), vehicle: saline) was 115 % of control and 121 % of control. For the same compound, the T/C (endpoint: mean survival time, dose: 4.0 mg/kg/injection, schedule: Q01DX001 (sc), vehicle: saline) was 112 % of control, the T/C (endpoint: mean survival time, dose: 4.0 mg/kg/injection, schedule: Q01DX009 (ip), vehicle: saline) was 204 % of control and 247 % of control and the T/C (endpoint: mean survival time, dose: 4.0 mg/kg/injection, schedule: Q01DX009 (sc), vehicle: saline) was 163 % of control. The T/C (endpoint: mean survival time, dose: 4.6 mg/kg/injection, schedule: Q01DX009 (ip), vehicle: saline) was 182 % of control, the T/C (endpoint: mean survival time, dose: 4.6 mg/kg/injection, schedule: Q04DX003 (ip), vehicle: saline) was 162 % of control and the T/C (endpoint: mean survival time, dose: 5.0 mg/kg/injection, schedule: Q01DX001 (ip), vehicle: saline) was 123 % of control. The T/C (endpoint: mean survival time, dose: 6.7 mg/kg/injection, schedule: Q04DX003 (ip), vehicle: saline) was 171 % of control, the T/C (endpoint: mean survival time, dose: 7.0 mg/kg/injection, schedule: Q01DX001 (ip), vehicle: saline) was 156 % of control and the T/C (endpoint: mean survival time, dose: 7.0 mg/kg/injection, schedule: Q01DX009 (ip), vehicle: saline) was 106 % of control. The T/C (endpoint: mean survival time, dose: 7.0 mg/kg/injection, schedule: Q04DX003 (ip), vehicle: saline) was 190 % of control, the T/C (endpoint: mean survival time, dose: 8.0 mg/kg/injection, schedule: Q01DX001 (ip), vehicle: saline) was 155 % of control and 156 % of control and the T/C (endpoint: mean survival time, dose: 8.0 mg/kg/injection, schedule: Q01DX009 (ip), vehicle: saline) was 96 % of control and 97 % of control. For the same compound, the T/C (endpoint: mean survival time, dose: 8.0 mg/kg/injection, schedule: Q01DX009 (sc), vehicle: saline) was 105 % of control, the T/C (endpoint: mean survival time, dose: 8.0 mg/kg/injection, schedule: Q04DX003 (ip), vehicle: saline) was 189 % of control and 446 % of control and the T/C (endpoint: mean survival time, dose: 8.0 mg/kg/injection, schedule: Q08DX002 (ip), vehicle: saline) was 184 % of control. For the same compound, the T/C (endpoint: mean survival time, dose: 10.0 mg/kg/injection, schedule: Q04DX003 (ip), vehicle: saline) was 288 % of control, the T/C (endpoint: mean survival time, dose: 10.6 mg/kg/injection, schedule: Q01DX009 (ip), vehicle: saline) was 100 % of control and the T/C (endpoint: mean survival time, dose: 10.6 mg/kg/injection, schedule: Q04DX003 (ip), vehicle: saline) was 243 % of control. For the same compound, the T/C (endpoint: mean survival time, dose: 16.0 mg/kg/injection, schedule: Q01DX001 (ip), vehicle: saline) was 175 % of control, the T/C (endpoint: mean survival time, dose: 16.0 mg/kg/injection, schedule: Q01DX001 (sc), vehicle: saline) was 174 % of control and the T/C (endpoint: mean survival time, dose: 16.0 mg/kg/injection, schedule: Q04DX003 (ip), vehicle: saline) was 116 % of control. For the same compound, the T/C (endpoint: mean survival time, dose: 16.0 mg/kg/injection, schedule: Q08DX002 (ip), vehicle: saline) was 162 % of control, the T/C (endpoint: mean survival time, dose: 20.0 mg/kg/injection, schedule: Q01DX001 (ip), vehicle: saline) was 92 % of control and the T/C (endpoint: median survival time, dose: 2.0 mg/kg/injection, schedule: Q01DX001 (ip), vehicle: saline) was 119 % of control and 104 % of control. The T/C (endpoint: median survival time, dose: 4.0 mg/kg/injection, schedule: Q01DX001 (ip), vehicle: saline) was 117 % of control, the T/C (endpoint: median survival time, dose: 4.0 mg/kg/injection, schedule: Q03DX003 (ip), vehicle: saline) was 175 % of control and 222 % of control and the T/C (endpoint: median survival time, dose: 6.0 mg/kg/injection, schedule: Q03DX003 (ip), vehicle: saline) was 189 % of control and 266 % of control. The T/C (endpoint: median survival time, dose: 8.0 mg/kg/injection, schedule: Q03DX003 (ip), vehicle: saline) was 206 % of control and 253 % of control, the T/C (endpoint: median survival time, dose: 12.0 mg/kg/injection, schedule: Q03DX003 (ip), vehicle: saline) was 229 % of control and the T/C (endpoint: median survival time, dose: 16.0 mg/kg/injection, schedule: Q01DX001 (ip), vehicle: saline) was 168 % of control and 182 % of control. The T/C (endpoint: median survival time, dose: 32.0 mg/kg/injection, schedule: Q01DX001 (ip), vehicle: saline) was 113 % of control and 104 % of control and the T/C (endpoint: median survival time, dose: 64.0 mg/kg/injection, schedule: Q01DX001 (ip), vehicle: saline) was 117 % of control and 105 % of control.
For `O=C(O)c1ccc([N+](=O)[O-])nc1`, the T/C (endpoint: mean survival time, dose: 100.0 mg/kg/injection, schedule: Q01DX001 (ip), vehicle: saline with Tween-80) was 91 % of control, the T/C [1] was 95 % of control and the T/C [2] was 93 % of control.
In the case of `O=C(CCl)c1cc(Cl)c(O)c(Cl)c1`, the T/C (endpoint: mean survival time, dose: 50.0 mg/kg/injection, schedule: Q01DX001 (ip), vehicle: carboxymethylcellulose (CMC)) is reported as 97 % of control.
In the case of `COc1ccc([N+](=O)[O-])cc1NC(=O)Nc1cccc(Cl)c1`, the T/C [3] is reported as 91 % of control, the T/C (endpoint: mean survival time, dose: 200.0 mg/kg/injection, schedule: Q04DX002 (ip), vehicle: saline with Tween-80) is reported as 97 % of control and the T/C (endpoint: mean survival time, dose: 400.0 mg/kg/injection, schedule: Q04DX002 (ip), vehicle: saline with Tween-80) is reported as 91 % of control.
`CCCCCCCCC(C)c1cccc(C(C)CCCCCCCC)c1O` (stereo not drawn) was tested, and the T/C [1] was 103 % of control and the T/C [2] was 103 % of control.
With `CC1OC(n2ccc(=O)[nH]c2=O)C2OC(C)(C)OC2C1=O` (stereo not drawn) the T/C (endpoint: median survival time, dose: 12.5 mg/kg/injection, schedule: Q01DX005 (ip), vehicle: saline with Tween-80) was 109 % of control, the T/C (endpoint: median survival time, dose: 25.0 mg/kg/injection, schedule: Q01DX005 (ip), vehicle: saline with Tween-80) was 97 % of control and the T/C (endpoint: median survival time, dose: 50.0 mg/kg/injection, schedule: Q01DX005 (ip), vehicle: saline with Tween-80) was 97 % of control. For the same compound, the T/C (endpoint: median survival time, dose: 100.0 mg/kg/injection, schedule: Q01DX005 (ip), vehicle: saline with Tween-80) was 101 % of control and the T/C (endpoint: median survival time, dose: 200.0 mg/kg/injection, schedule: Q01DX005 (ip), vehicle: saline with Tween-80) was 101 % of control.
With `O=C(O)C(O)C(O)C(O)C(O)CO.[Mn]` (stereo not drawn) the T/C [4] was 106 % of control, the T/C (endpoint: mean survival time, dose: 50.0 mg/kg/injection, schedule: Q04DX003 (ip), vehicle: saline with Tween-80) was 100 % of control and the T/C [5] was 107 % of control. For the same compound, the T/C [6] was 102 % of control, the T/C [7] was 118 % of control and the T/C [8] was 104 % of control.
With `CCCCNP1(NCCCC)=NP(NCCCC)(NCCCC)=NP(NCCCC)(NCCCC)=NP(NCCCC)(NCCCC)=N1` the T/C (endpoint: median survival time, dose: 12.5 mg/kg/injection, schedule: Q01DX009 (ip), vehicle: saline with Tween-80) was 107 % of control, the T/C (endpoint: median survival time, dose: 25.0 mg/kg/injection, schedule: Q01DX009 (ip), vehicle: saline with Tween-80) was 107 % of control and the T/C (endpoint: median survival time, dose: 50.0 mg/kg/injection, schedule: Q01DX009 (ip), vehicle: saline with Tween-80) was 97 % of control.
In the case of `NNC(=O)OCc1ccccc1`, the T/C [3] is reported as 100 % of control.
For `CCCCCOC(=O)CC(N)C(=O)OCCCCC` (stereo not drawn), the T/C [4] was 96 % of control, the T/C [5] was 100 % of control and the T/C [6] was 93 % of control. For the same compound, the T/C [7] was 91 % of control and the T/C [8] was 93 % of control.
For `C=CCOC(=O)C1c2ccccc2Cc2ccccc21`, the T/C [5] was 92 % of control, the T/C [7] was 106 % of control and the T/C (endpoint: mean survival time, dose: 400.0 mg/kg/injection, schedule: Q01DX009 (ip), vehicle: saline with Tween-80) was 92 % of control.

From PubChem BioAssay AID256 (DTP/NCI, 2004)
